Test results as given in the supplement of paper PMC10307832.

Columns and labels:
Experiment in all cases: relative viability (nuclei count vs DMSO), 5 days (fraction); higher = more cells survive
Dovitinib + Bortezomib = compound: CN1CCN(c2ccc3nc(-c4c(N)c5c(F)cccc5[nH]c4=O)[nH]c3c2)CC1 [Dovitinib] + CC(C)C[C@H](NC(=O)[C@H](Cc1ccccc1)NC(=O)c1cnccn1)B(O)O [Bortezomib] (partner 0.002 µM)
In short: (§1)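 After 5 days of treatment, lung cancer cells in 1536-well plates were fixed and stained in a single step (final 0.05% Triton X-100, 1% formaldehyde, 1 ug/ml Hoechst) and their nuclei counted on 4× images. Treatment had been applied by pin tool the day after seeding as one drug alone or as a fixed anchor-drug dose with five library-drug doses (not always all listed) in √10 steps. Relative viability is the nuclei count of treated wells divided by that of vehicle wells, and values are medians of duplicate plates.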

Dovitinib + AZD7762 = compound: CN1CCN(c2ccc3nc(-c4c(N)c5c(F)cccc5[nH]c4=O)[nH]c3c2)CC1 [Dovitinib] + NC(=O)Nc1cc(-c2cccc(F)c2)sc1C(=O)N[C@H]1CCCNC1 [AZD7762] (partner 0.2 µM)
In short: as §1

Dovitinib + Tozasertib = compound: CN1CCN(c2ccc3nc(-c4c(N)c5c(F)cccc5[nH]c4=O)[nH]c3c2)CC1 [Dovitinib] + Cc1cc(Nc2cc(N3CCN(C)CC3)nc(Sc3ccc(NC(=O)C4CC4)cc3)n2)n[nH]1 [Tozasertib] (partner 0.1 µM)
In short: as §1

Dovitinib + Decitabine = compound: CN1CCN(c2ccc3nc(-c4c(N)c5c(F)cccc5[nH]c4=O)[nH]c3c2)CC1 [Dovitinib] + Nc1ncn([C@H]2C[C@H](O)[C@@H](CO)O2)c(=O)n1 [Decitabine] (partner 2 µM)
In short: as §1

| Cell Line | relative viability (Dovitinib + Bortezomib; first compound 0.02 µM) | relative viability (Dovitinib + Bortezomib; first compound 0.06325 µM) | relative viability (Dovitinib + Bortezomib; first compound 0.2 µM) | relative viability (Dovitinib + Bortezomib; first compound 0.6325 µM) | relative viability (Dovitinib + Bortezomib; first compound 2 µM) | relative viability (Dovitinib + AZD7762; first compound 0.02 µM) | relative viability (Dovitinib + AZD7762; first compound 0.06325 µM) | relative viability (Dovitinib + AZD7762; first compound 0.2 µM) | relative viability (Dovitinib + AZD7762; first compound 0.6325 µM) | relative viability (Dovitinib + AZD7762; first compound 2 µM) | relative viability (Dovitinib + Tozasertib; first compound 0.02 µM) | relative viability (Dovitinib + Tozasertib; first compound 0.06325 µM) | relative viability (Dovitinib + Tozasertib; first compound 0.2 µM) | relative viability (Dovitinib + Tozasertib; first compound 0.6325 µM) | relative viability (Dovitinib + Tozasertib; first compound 2 µM) | relative viability (Dovitinib + Decitabine; first compound 0.02 µM) | relative viability (Dovitinib + Decitabine; first compound 0.06325 µM) | relative viability (Dovitinib + Decitabine; first compound 0.2 µM) | relative viability (Dovitinib + Decitabine; first compound 0.6325 µM) | relative viability (Dovitinib + Decitabine; first compound 2 µM) |
| --- | --- | --- | --- | --- | --- | --- | --- | --- | --- | --- | --- | --- | --- | --- | --- | --- | --- | --- | --- | --- |
| NCI-H2085 | 1.05 | 1.1 | 1.03 | 1.21 | 1.06 | 1.07 | 1.13 | 1.04 | 0.998 | 1.04 | 0.83 | 0.871 | 0.851 | 0.824 | 0.84 | 0.606 | 0.532 | 0.592 | 0.573 | 0.558 |
| H3255 | 0.773 | 0.642 | 0.804 | 0.739 | 0.788 | 0.966 | 0.907 | 1 | 0.89 | 0.809 | 0.741 | 0.617 | 0.766 | 0.638 | 0.629 | 0.609 | 0.642 | 0.603 | 0.636 | 0.614 |
| NCI-H650 | 0.883 | 0.711 | 0.729 | 0.709 | 0.806 | 1.05 | 1.35 | 0.951 | 1.08 | 1 | 0.713 | 0.689 | 0.725 | 0.824 | 0.854 | 0.29 | 0.309 | 0.331 | 0.333 | 0.279 |
| LCLC-103H | 1 | 1.07 | 1.01 | 0.987 | 1.13 | 0.777 | 0.802 | 0.784 | 0.704 | 0.699 | 0.539 | 0.414 | 0.477 | 0.415 | 0.53 | 0.722 | 0.775 | 0.75 | 0.758 | 0.739 |
